Laboratory results published in patent US20250311722A1, “IMPROVED BIOCIDE” (Purgos ApS, priority 2022, published 2025).
Several values for one entry are separate records, joined by “and”; a condition that tells them apart may be missing. Equal values may be shown once.

How the values were obtained:
Type in all cases: cell-based
[1] = test system: Coniophora puteana. BAM Ebw. 15; assay: EN 113 test against wood destroying basidiomycetes; conditions: for Corrected mass loss / Mass loss: single blocks
Source text: (§1) EN 113, 2020: Durability of wood and wood-based products-Test method against wood destroying basidiomycetes. Assessment of biocidal efficacy of wood preservatives.
(§2) Assessment of the results shown in table XIV.: The protection provided for the wood by the test preservative at the given concentration is deemed to be adequate if: • a) the corrected mean loss is less than 3.0% (m/m) • b) not more than one specimen has suffered a loss in mass greater than 3.0% (m/m) but less than 5.0% (m/m)
(§3) The impregnation process was carried out on 24-03-2021 with the following conditions:
(§4) Pre-vacuum at 0.1 bar for 30 minutes.
(§5) Pressure of 13 bars for 60 minutes.
(§6) Scots pine sapwood (Pinus sylvestris L.) for brown rot fungi with an average density of 589 kg/m3.
(§7) 4 weeks according to EN 113 at 65% RH and 20° C. until stable mass was obtained.
(§8) Ionising radiation (2× 25 kGy).

[2] = test system: Poria placenta. FPRL 280; assay: EN 113 test against wood destroying basidiomycetes; conditions: for Corrected mass loss / Mass loss: single blocks
Source text: as §1, §2, §3, §4, §5, §6, §7, §8

[3] = test system: Gloeophyllum trabeum. BAM Ebw. 109; assay: EN 113 test against wood destroying basidiomycetes; conditions: for Corrected mass loss / Mass loss: single blocks; for Corrected mass loss, Mean / Mass loss, Mean: mean of blocks
Source text: as §1, §2, §3, §4, §5, §6, §7, §8

[4] = test system: bacteria; assay: PVB dispersion treated with NBDA: microbial contamination by cATP (LuminUltra); design: bacteria count: unit not given here
[5] = test system: Bacillus cereus ISI 842; assay: Minimum bactericidal concentration (MBC); design: MBC data (outgrowth): unit not given here
Source text: (§9) Even when no growth is detectable in the MIC tests, it is possible that the microorganisms have survived the treatment i.e., they are not killed but just prevented from growing. In order to test for survivors, MBC plates were subsequently made from the MIC plates.

[6] = test system: Lactobacillus brevis ISI 2269; assay: Minimum bactericidal concentration (MBC); design: MBC data (outgrowth): unit not given here
Source text: as §9

[7] = concentrations of 0.36%, 0.51%, 0.72%, 1.01% and 1.43%
[8] = 0.50% NBDA, 25° C.(RT), after 1 mo
[9] = 0.50% NBDA, 25° C.(RT), after 1 wk
[10] = 0.50% NBDA, 25° C.(RT), after 3 mo
[11] = 0.50% NBDA, 25° C.(RT), after 6 mo
[12] = 0.50% NBDA, 25° C.(RT), after 1 d
[13] = 1.00% NBDA, 25° C.(RT), after 1 mo
[14] = 1.00% NBDA, 25° C.(RT), after 1 wk
[15] = 1.00% NBDA, 25° C.(RT), after 3 mo
[16] = 1.00% NBDA, 25° C.(RT), after 6 mo
[17] = 1.00% NBDA, 25° C.(RT), after 1 d

Structure (SMILES): CCCCN(CCO)CCO [NBDA, N-butyldiethanolamine]
- Toxic value, Retention of product ([1]; Scots pine sapwood): >9.86 kg/m^3
- Toxic value, Solution conc. ([1]; Scots pine sapwood): >1.43 % w/w
- Corrected mass loss, Mean ([1]; solution conc. 0.36% w/w): 36.6%
- Mass loss, Mean ([1]; solution conc. 0.36% w/w): 36.8%
- Corrected mass loss ([1]; solution conc. 0.36% w/w): 39.2% and 27.2% and 47.6% and 32.3%
- Mass loss ([1]; solution conc. 0.36% w/w): 39.4% and 27.4% and 47.8% and 32.5%
- Corrected mass loss, Mean ([1]; solution conc. 0.51% w/w): 38.3%
- Mass loss, Mean ([1]; solution conc. 0.51% w/w): 38.5%
- Corrected mass loss ([1]; solution conc. 0.51% w/w): 42.4% and 39.5% and 34.0% and 37.2%
- Mass loss ([1]; solution conc. 0.51% w/w): 42.6% and 39.7% and 34.2% and 37.4%
- Corrected mass loss, Mean ([1]; solution conc. 0.72% w/w): 37.4%
- Mass loss, Mean ([1]; solution conc. 0.72% w/w): 37.1%
- Corrected mass loss ([1]; solution conc. 0.72% w/w): 29.8% and 43.3% and 36.9% and 39.7%
- Mass loss ([1]; solution conc. 0.72% w/w): 29.5% and 43.0% and 36.6% and 39.3%
- Corrected mass loss, Mean ([1]; solution conc. 1.01% w/w): 40.4%
- Mass loss, Mean ([1]; solution conc. 1.01% w/w): 39.9%
- Corrected mass loss ([1]; solution conc. 1.01% w/w): 37.2% and 41.8% and 45.1% and 37.3%
- Mass loss ([1]; solution conc. 1.01% w/w): 36.7% and 41.4% and 44.6% and 36.8%
- Corrected mass loss, Mean ([1]; solution conc. 1.43% w/w): 36.1%
- Mass loss, Mean ([1]; solution conc. 1.43% w/w): 35.0%
- Corrected mass loss ([1]; solution conc. 1.43% w/w): 31.1% and 37.2% and 38.4% and 37.8%
- Mass loss ([1]; solution conc. 1.43% w/w): 30.0% and 36.2% and 37.3% and 36.7%
- Toxic value, Retention of product ([2]; Scots pine sapwood): 4.87-7.02 kg/m^3
- Toxic value, Solution conc. ([2]; Scots pine sapwood): 0.72-1.01 % w/w
- fungicide for preventing wood destruction [2, 7]: effective as a fungicide
- Corrected mass loss, Mean ([2]; solution conc. 0.36% w/w): 14.2%
- Mass loss, Mean ([2]; solution conc. 0.36% w/w): 14.4%
- Corrected mass loss ([2]; solution conc. 0.36% w/w): 14.0% and 19.2% and 11.4% and 12.3%
- Mass loss ([2]; solution conc. 0.36% w/w): 14.2% and 19.4% and 11.6% and 12.5%
- Corrected mass loss, Mean ([2]; solution conc. 0.51% w/w): 14.6%
- Mass loss, Mean ([2]; solution conc. 0.51% w/w): 14.8%
- Corrected mass loss ([2]; solution conc. 0.51% w/w): 14.0% and 17.1% and 14.2% and 13.3%
- Mass loss ([2]; solution conc. 0.51% w/w): 14.2% and 17.3% and 14.4% and 13.5%
- Corrected mass loss, Mean ([2]; solution conc. 0.72% w/w): 8.2%
- Mass loss, Mean ([2]; solution conc. 0.72% w/w): 7.8%
- Corrected mass loss ([2]; solution conc. 0.72% w/w): 9.2% and 9.0% and 6.3% and 8.2%
- Mass loss ([2]; solution conc. 0.72% w/w): 8.9% and 8.7% and 5.9% and 7.9%
- Corrected mass loss, Mean ([2]; solution conc. 1.01% w/w): 1.4%
- Mass loss, Mean ([2]; solution conc. 1.01% w/w): 1.0%
- Corrected mass loss ([2]; solution conc. 1.01% w/w): 2.5% and 0.1% and 1.3% and 1.9%
- Mass loss ([2]; solution conc. 1.01% w/w): 2.0% and −0.3% and 0.8% and 1.4%
- Corrected mass loss, Mean ([2]; solution conc. 1.43% w/w): 1.5%
- Mass loss, Mean ([2]; solution conc. 1.43% w/w): 0.4%
- Corrected mass loss ([2]; solution conc. 1.43% w/w): 0.5% and 4.1% and 0.7% and 0.6%
- Mass loss ([2]; solution conc. 1.43% w/w): −0.6% and 3.0% and −0.4% and −0.5%
- Toxic value, Retention of product ([3]; Scots pine sapwood): 6.85-10.03 kg/m^3
- Toxic value, Solution conc. ([3]; Scots pine sapwood): 1.01-1.43 % w/w
- fungicide for preventing wood destruction [3, 7]: effective as a fungicide
- Corrected mass loss ([3]; solution conc. 0.36% w/w): 44.8% and 30.6% and 32.5% and 33.8%
- Mass loss ([3]; solution conc. 0.36% w/w): 45.0% and 30.8% and 32.7% and 34.0%
- Corrected mass loss, Mean ([3]; solution conc. 0.36 % w/w): 35.4%
- Mass loss, Mean ([3]; solution conc. 0.36 % w/w): 35.6%
- Corrected mass loss ([3]; solution conc. 0.51% w/w): 34.8% and 29.4% and 36.4% and 31.1%
- Mass loss ([3]; solution conc. 0.51% w/w): 35.0% and 29.6% and 36.6% and 31.3%
- Corrected mass loss, Mean ([3]; solution conc. 0.51 % w/w): 32.9%
- Mass loss, Mean ([3]; solution conc. 0.51 % w/w): 33.1%
- Corrected mass loss ([3]; solution conc. 0.72% w/w): 30.9% and 33.1% and 34.2% and 26.5%
- Mass loss ([3]; solution conc. 0.72% w/w): 30.6% and 32.7% and 33.8% and 26.1%
- Corrected mass loss, Mean ([3]; solution conc. 0.72 % w/w): 31.2%
- Mass loss, Mean ([3]; solution conc. 0.72 % w/w): 30.8%
- Corrected mass loss, Mean ([3]; solution conc. 1.01 % w/w): 11.4%
- Mass loss, Mean ([3]; solution conc. 1.01 % w/w): 11.0%
- Corrected mass loss ([3]; solution conc. 1.43% w/w): 0.7% and 0.3% and 2.0%
- Mass loss ([3]; solution conc. 1.43% w/w): −0.4% and −0.8% and 1.0% and 0.9%
- Corrected mass loss, Mean ([3]; solution conc. 1.43 % w/w): 1.3%
- Mass loss, Mean ([3]; solution conc. 1.43 % w/w): 0.2%
- BSI [4, 8]: 13
- bacteria count [4, 8]: 34.8
- pH [4, 8]: 9.73
- BSI [4, 9]: 17
- bacteria count [4, 9]: 147
- pH [4, 9]: 9.65
- BSI [4, 10]: 67
- bacteria count [4, 10]: 22.7
- pH [4, 10]: 9.62
- BSI [4, 11]: 50
- bacteria count [4, 11]: 5.77
- pH [4, 11]: 9.58
- BSI [4, 12]: 4
- bacteria count [4, 12]: 2930
- pH [4, 12]: 9.77
- bacteria count ([4]; 0.50% NBDA, 32° C., after 1 mo): 9.47
- bacteria count ([4]; 0.50% NBDA, 32° C., after 1 wk): 81
- bacteria count ([4]; 0.50% NBDA, 32° C., after 3 mo): 5.66
- bacteria count ([4]; 0.50% NBDA, 32° C., after 1 d): 215
- bacteria count ([4]; 0.50% NBDA, 60° C., after 1 mo): 126
- bacteria count ([4]; 0.50% NBDA, 60° C., after 1 wk): 276
- bacteria count ([4]; 0.50% NBDA, 60° C., after 3 mo): 4.2
- bacteria count ([4]; 0.50% NBDA, 60° C., after 1 d): 420
- BSI [4, 13]: 10
- bacteria count [4, 13]: 39.1
- pH [4, 13]: 9.86
- BSI [4, 14]: 24
- bacteria count [4, 14]: 183
- pH [4, 14]: 9.89
- BSI [4, 15]: 60
- bacteria count [4, 15]: 3.77
- pH [4, 15]: 9.93
- BSI [4, 16]: 83
- bacteria count [4, 16]: 1.36
- pH [4, 16]: 9.67
- BSI [4, 17]: 6
- bacteria count [4, 17]: 1530
- pH [4, 17]: 10.2
- bacteria count ([4]; 1.00% NBDA, 32° C., after 1 mo): 17.9
- bacteria count ([4]; 1.00% NBDA, 32° C., after 1 wk): 13.5
- bacteria count ([4]; 1.00% NBDA, 32° C., after 3 mo): 0.94
- bacteria count ([4]; 1.00% NBDA, 32° C., after 1 d): 338
- bacteria count ([4]; 1.00% NBDA, 60° C., after 1 mo): 202
- bacteria count ([4]; 1.00% NBDA, 60° C., after 1 wk): 387
- bacteria count ([4]; 1.00% NBDA, 60° C., after 3 mo): 9.3
- bacteria count ([4]; 1.00% NBDA, 60° C., after 1 d): 244
- effectiveness as sole biocide additive ([4]; concentration 0.5%, long term, RT, 32° C. and 60° C.): highly effective as the sole biocide additive
- MBC (%) [5]: 1.25%
- MBC data (outgrowth) ([5]; 0.02% NBDA): 1.261 and 1.253
- MBC data (outgrowth) ([5]; 0.04% NBDA): 1.106 and 1.352
- MBC data (outgrowth) ([5]; 0.08% NBDA): 1.098 and 1.118
- MBC data (outgrowth) ([5]; 0.16% NBDA): 1.286 and 1.086
- MBC data (outgrowth) ([5]; 0.31% NBDA): 1.277 and 1.161
- MBC data (outgrowth) ([5]; 0.63% NBDA): 1.117 and 1.001
- MBC data (outgrowth) ([5]; 1.25% NBDA): 0.075 and 0.076
- MBC data (outgrowth) ([5]; 2.50% NBDA): 0.072 and 0.078
- MBC data (outgrowth) ([5]; 5.00% NBDA): 0.066
- MBC (%) [6]: 0.31%
- MBC data (outgrowth) ([6]; 0.02% NBDA): 0.446 and 0.463
- MBC data (outgrowth) ([6]; 0.04% NBDA): 0.439 and 0.455
- MBC data (outgrowth) ([6]; 0.08% NBDA): 0.447 and 0.470
- MBC data (outgrowth) ([6]; 0.16% NBDA): 0.755 and 1.060
- MBC data (outgrowth) ([6]; 0.31% NBDA): 0.078 and 0.077
- MBC data (outgrowth) ([6]; 0.63% NBDA): 0.208 and 0.248
- MBC data (outgrowth) ([6]; 1.25% NBDA): 0.077
- MBC data (outgrowth) ([6]; 2.50% NBDA): 0.075 and 0.077
- MBC data (outgrowth) ([6]; 5.00% NBDA): 0.067 and 0.068
